Values quoted from earlier work as cited in patent publication US8765768B2, “Heterocyclic compounds and their uses” (Amgen Inc., priority 2010, dated 2014).

What was measured:
[1] = test system: model of systemic lupus erythematosis; conditions: in vivo
[2] = test system: mouse model of rheumatoid arthritis; conditions: in vivo
[3] = test system: ovalbumin-induced airway inflammation
p110δ = target: T1, p110δ (Homo sapiens, UniProt O00329)
T1 sequence (O00329 1-1044): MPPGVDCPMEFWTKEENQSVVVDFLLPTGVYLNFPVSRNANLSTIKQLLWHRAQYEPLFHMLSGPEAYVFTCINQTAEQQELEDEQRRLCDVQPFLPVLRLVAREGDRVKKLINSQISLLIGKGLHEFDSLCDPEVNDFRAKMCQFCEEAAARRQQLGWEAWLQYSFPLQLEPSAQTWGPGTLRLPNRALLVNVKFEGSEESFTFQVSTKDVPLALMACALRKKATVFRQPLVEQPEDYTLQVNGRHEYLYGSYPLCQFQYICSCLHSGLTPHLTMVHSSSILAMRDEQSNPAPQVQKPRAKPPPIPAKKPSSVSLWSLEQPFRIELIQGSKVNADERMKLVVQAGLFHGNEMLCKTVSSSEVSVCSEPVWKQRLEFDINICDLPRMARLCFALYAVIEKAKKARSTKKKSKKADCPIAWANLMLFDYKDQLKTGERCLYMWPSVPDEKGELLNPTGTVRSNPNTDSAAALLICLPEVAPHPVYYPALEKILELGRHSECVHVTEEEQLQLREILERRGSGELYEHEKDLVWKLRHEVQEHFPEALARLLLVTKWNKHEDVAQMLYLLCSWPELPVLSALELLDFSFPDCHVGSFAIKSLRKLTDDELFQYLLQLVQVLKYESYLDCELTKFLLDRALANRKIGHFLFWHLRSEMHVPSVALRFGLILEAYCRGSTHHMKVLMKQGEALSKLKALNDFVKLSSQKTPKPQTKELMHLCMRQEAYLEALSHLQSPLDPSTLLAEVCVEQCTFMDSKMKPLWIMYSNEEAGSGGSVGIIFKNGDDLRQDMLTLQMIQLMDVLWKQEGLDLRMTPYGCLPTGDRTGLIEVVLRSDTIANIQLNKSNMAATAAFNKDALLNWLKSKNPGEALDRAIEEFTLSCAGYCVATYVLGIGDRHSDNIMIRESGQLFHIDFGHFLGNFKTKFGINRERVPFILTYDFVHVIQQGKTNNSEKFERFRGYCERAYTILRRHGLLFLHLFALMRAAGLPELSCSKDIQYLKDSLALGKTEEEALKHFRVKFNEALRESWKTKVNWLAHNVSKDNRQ

| Structure (SMILES) | onset of disease in a model of systemic lupus erythematosis [1] | efficacy in a mouse model of rheumatoid arthritis [2] | inflammation and disease in a murine model of asthma [3] | activity against any protein kinases tested (protein kinases) | inhibits p110δ (p110δ) |
| --- | --- | --- | --- | --- | --- |
| O=C1NC(=O)/C(=C\c2ccc3nccnc3c2)S1 [AS 605240] | delay onset of disease | efficacious |  |  |  |
| Cc1ccccc1-n1c(Cn2cnc3c(N)ncnc32)nc2cccc(C)c2c1=O [IC87114] |  |  | significantly ameliorate inflammation and disease | no activity | high nanomolar range (triple digit) |
